A short description of series [1]: (§1) Inhibition of ER dependent NF-kappaB expression in ER expressing HAECT1 cells by luciferase reporter gene assay. The class given is cell-based. Conditions: Homo sapiens.
Series [2] has as its system HAECT1. The experiment in a line: Inhibition of ER dependent NF-kappaB expression in ER expressing HAECT1 cells at 10 uM by luciferase reporter gene assay relative to E2. In kind it is cell-based. Conditions: Homo sapiens.
The test system of series [3] is HAECT1. The experiment in a line: (§2) Inhibition of ER dependent creatine kinase expression in ER expressing HAECT1 cells. The class given is cell-based. Conditions: Homo sapiens.
A short description of series [4]: Inhibition of ER dependent IL6 expression in ER expressing HAECT1 cells. The class given is cell-based. Conditions: Homo sapiens.
In series [5] the test system is HAECT1. As to the kind of experiment: Inhibition of ER dependent IL6 expression in ER expressing HAECT1 cells at 10 uM relative to E2. The class given is cell-based. Conditions: Homo sapiens.
Series [6] relates to HAECT1. The experiment in a line: Inhibition of ER dependent NF-kappaB expression in ER expressing HAECT1 cells at 1 uM by luciferase reporter gene assay. In kind it is cell-based. Conditions: Homo sapiens.
For series [7], the system named is Mus musculus. As to the kind of experiment: Inhibition of NFkB mediated MHC gene expression in C57BL/6 mouse at 5 mg/kg/day, po after 5 weeks relative to 17-alpha-ethinyl-17beta-estradiol. The class given is functional. On the set-up: scale not given: the % may be the effect or the level left.
Series [8] relates to Rattus norvegicus. The experiment in a line: Inhibition of 17-alpha-ethinyl-17beta-estradiol induced uterine wet weight in Sprague-Dawley rat at 2 mg/kg/day. The class given is functional, organism-based.
In series [9] the test system is Mus musculus. As to the kind of experiment: Inhibition of NFkB mediated VCAM gene expression in C57BL/6 mouse at 5 mg/kg/day, po after 5 weeks. In kind it is functional. Conditions: C57BL/6, 840 h.
For series [10], the system named is Mus musculus. The experiment in a line: Inhibition of NFkB mediated RANTES gene expression in C57BL/6 mouse at 5 mg/kg/day, po after 5 weeks relative to 17-alpha-ethinyl-17beta-estradiol. Details: scale not given: the % may be the effect or the level left. The class given is functional.
For series [11], the system named is Mus musculus. As to the kind of experiment: Inhibition of NFkB mediated VCAM gene expression in C57BL/6 mouse at 5 mg/kg/day, po after 5 weeks relative to 17-alpha-ethinyl-17beta-estradiol. The class given is functional. Details: scale not given: the % may be the effect or the level left.
Series [12] deals with Mus musculus. As to the kind of experiment: Inhibition of NFkB mediated TNFalpha gene expression in C57BL/6 mouse at 5 mg/kg/day, po after 5 weeks. The class given is functional. Conditions: C57BL/6, 840 h.
Series [13] has as its system Rattus norvegicus. As to the kind of experiment: Inhibition of adjuvant-induced arthritis in Lewis rat assessed as improvement in synovial scoring at 0.3 mg/kg/day, po. The class given is functional. On the set-up: scale not given: the % may be the effect or the level left.
Series [14] has as its system Mus musculus. The experiment in a line: Increase in uterine wet weight in C57BL/6 mouse at 5 mg/kg/day, po after 5 days relative to control. The class given is functional.
The target of series [15] is Estrogen receptor beta (Homo sapiens, UniProt Q92731). As to the kind of experiment: Displacement of [3H]E2 from human ERbeta ligand binding domain.
Sequence of Estrogen receptor beta (Q92731 whole entry, the tested form may be a part): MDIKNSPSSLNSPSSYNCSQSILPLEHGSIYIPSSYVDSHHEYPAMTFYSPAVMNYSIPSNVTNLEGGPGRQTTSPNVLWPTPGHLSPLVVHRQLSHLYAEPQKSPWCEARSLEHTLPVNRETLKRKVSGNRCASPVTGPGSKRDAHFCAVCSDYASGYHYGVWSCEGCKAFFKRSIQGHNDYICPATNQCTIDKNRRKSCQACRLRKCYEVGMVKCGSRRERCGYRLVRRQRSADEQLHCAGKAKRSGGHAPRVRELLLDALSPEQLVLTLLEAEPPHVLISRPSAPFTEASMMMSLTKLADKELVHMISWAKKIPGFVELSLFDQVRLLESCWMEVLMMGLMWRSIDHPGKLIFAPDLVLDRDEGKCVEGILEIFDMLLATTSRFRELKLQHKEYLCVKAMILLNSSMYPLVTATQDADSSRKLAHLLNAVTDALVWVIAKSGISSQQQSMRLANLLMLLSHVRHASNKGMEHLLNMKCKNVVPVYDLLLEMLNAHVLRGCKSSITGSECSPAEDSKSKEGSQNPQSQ
For series [16], the system named is Mus musculus. The experiment in a line: Inhibition of NFkB mediated RANTES gene expression in C57BL/6 mouse at 5 mg/kg/day, po after 5 weeks. The class given is functional. Conditions: C57BL/6, 840 h.
Series [17] relates to Mus musculus. The experiment in a line: Inhibition of NFkB mediated TNFalpha gene expression in C57BL/6 mouse at 5 mg/kg/day, po after 5 weeks relative to 17-alpha-ethinyl-17beta-estradiol. The class given is functional. On the set-up: scale not given: the % may be the effect or the level left.
For series [18], the target named is T1, Estrogen receptor (Homo sapiens, UniProt P03372).
T1 sequence (P03372 whole entry): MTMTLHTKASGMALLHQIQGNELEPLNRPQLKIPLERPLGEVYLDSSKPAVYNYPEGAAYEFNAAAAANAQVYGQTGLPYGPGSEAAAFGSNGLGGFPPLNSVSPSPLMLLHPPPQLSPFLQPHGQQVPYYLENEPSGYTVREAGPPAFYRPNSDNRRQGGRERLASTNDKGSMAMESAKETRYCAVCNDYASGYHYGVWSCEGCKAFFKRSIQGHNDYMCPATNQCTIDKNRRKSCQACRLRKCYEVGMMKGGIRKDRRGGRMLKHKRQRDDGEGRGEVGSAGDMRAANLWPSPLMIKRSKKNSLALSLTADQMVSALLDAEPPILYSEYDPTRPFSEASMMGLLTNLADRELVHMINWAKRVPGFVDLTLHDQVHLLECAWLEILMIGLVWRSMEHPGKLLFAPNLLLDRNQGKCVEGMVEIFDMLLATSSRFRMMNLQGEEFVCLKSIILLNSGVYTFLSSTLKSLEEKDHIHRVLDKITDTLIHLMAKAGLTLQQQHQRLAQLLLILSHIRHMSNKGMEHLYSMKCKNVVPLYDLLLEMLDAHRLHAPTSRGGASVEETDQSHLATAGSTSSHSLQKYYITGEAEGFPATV
As to the kind of experiment: Displacement of [3H]E2 from human ERalpha ligand binding domain.

Series [19] concerns Rattus norvegicus. The experiment in a line: Stimulation of uterine wet weight in Sprague-Dawley rat at 2 mg/kg/day. The class given is functional, organism-based.
Series [20] has as its system Mus musculus. As to the kind of experiment: Inhibition of NFkB mediated MHC gene expression in C57BL/6 mouse at 5 mg/kg/day, po after 5 weeks. In kind it is functional. Conditions: C57BL/6, 840 h.
Series [21] deals with HAECT1. Described as §1. The class given is cell-based. Conditions: Homo sapiens.
Series [22] can be described thus: as §2. The class given is cell-based. Conditions: Homo sapiens.
Series [23] relates to HAECT1. As to the kind of experiment: Inhibition of ER dependent creatine kinase expression in ER expressing HAECT1 cells at 10 uM relative to E2. Conditions: Homo sapiens. The class given is cell-based.
The subject of series [24] is Plasma. The experiment in a line: Stability in mouse plasma assessed as hydrolysis after 24 hr at 37 deg C. The class given is ADME, cell-free. Details: scale not given: the % may be the effect or the level left.
Series [25] has as its system Plasma. As to the kind of experiment: Stability in mouse plasma assessed as hydrolysis after 4 hr at 37 deg C. The class given is ADME, cell-free. On the set-up: scale not given: the % may be the effect or the level left.

Structures are written as SMILES. The source made the active and inactive calls. The calls are words filed in the database; no cut-off is given here.

With `CCOC(=O)C(C#N)C(c1ccc2ccccc2c1)c1cccc2ccccc12` (configuration not stated), the IC50 in series [1] is 389 nM. In series [2], this compound came in with an Efficacy of 76%. The result in series [3] was inactive.

Turning to `CCOC(=O)C(C#N)C(c1cccc2ccccc12)c1cccc2ccccc12` (configuration not stated), the IC50 amounted to 550 nM in series [1] and 185 nM in series [4]. In addition, the results for the Efficacy in [2] and in series [5] were 96% and 91%, respectively. Further, in series [3], the outcome was inactive.

The compound `CCOC(=O)C(C)(C#N)C(c1cccc2ccccc12)c1cccc2ccccc12` (configuration not stated) had a 50% inhibitory concentration (IC50) in series [1] of 206 nM. In [2], this compound displayed an Efficacy of 96%. Also, in [3], the result was inactive.

In series [1], `CCOC(=O)C(C)(C#N)C(c1ccccc1[N+](=O)[O-])c1cccc2ccccc12` (configuration not stated) had an IC50 of 268 nM. In [2], the Efficacy turned out to be 112%. In addition, the outcome in [3] was inactive.

Take `CCOC(=O)C(C#N)C(c1ccc(C)cc1)c1cccc2ccccc12` (configuration not stated): the concentration for half-maximal inhibition (IC50) in series [1] amounted to 550 nM. In [2], this compound gave an Efficacy of 64%. In series [3], the result was inactive.

The compound `CCOC(=O)C(C#N)C(c1cccc2ccccc12)c1ccnc2ccccc12` (configuration not stated) came in with an Efficacy in series [2] of 4%. This compound also had an inhibition in series [6] of 3%.

Consider `COc1ccccc1[C@H](c1cccc2ccccc12)[C@@](C)(C#N)C(=O)N1CCC(c2cccc(C(F)(F)F)c2)CC1`, for which the IC50 in [1] was determined as 122 nM; in series [15], 1500 nM; in series [18] it was 2430 nM. Besides, the Activity in [7] turned out to be 86%; in series [10] it was 65%; in series [11] it was 94%; in series [13], 50%; in series [17] it was 83%. In series [2], the Efficacy was determined as 94%. The result in series [8], in series [3] and in series [19] was inactive. Further, the inhibition in vivo at 5 mg/kg/day in series [9] turned out to be 48%; in [12], 59%; in series [16], 50%; in [20], 42%. Moreover, the Fold change in [14] is recorded as 1.

Regarding `N#CC(C(=O)O)C(c1cccc2ccccc12)c1cccc2ccccc12` (configuration not stated), the outcome in series [21] and in [3] was inactive.

The compound `N#CC(C(N)=O)C(c1cccc2ccccc12)c1cccc2ccccc12` (configuration not stated) gave an IC50 in [1] of 1900 nM. In addition, the Efficacy in [2] worked out at 55%. Also, the outcome in [3] was inactive.

On to `CCOC(=O)C(C#N)C(c1cccc(OC)c1)c1cccc2ccccc12` (configuration not stated), for which the outcome in [21] and in [3] was inactive.

`CCOC(=O)C(C#N)C(c1ccccc1SC)c1cccc2ccccc12` (configuration not stated) displayed a half-maximal inhibitory concentration (IC50) in series [1] of 118 nM. The Efficacy in [2] is 102%; in series [23], 24%. Moreover, the EC50 in series [22] stood at 197 nM.

In series [1], `CCOC(=O)C(C)(C#N)C(c1ccccc1OC)c1cccc2ccccc12` (configuration not stated) registered an IC50 of 105 nM. The Efficacy in [2] turned out to be 110%; in series [23], 33%. In series [22], this compound gave an EC50 of 98 nM.

The compound `CCOC(=O)C(C)(C#N)C(c1ccccc1SC)c1cccc2ccccc12` (configuration not stated) yielded a 50% inhibitory concentration (IC50) in series [1] of 327 nM. In [2], this compound came in with an Efficacy of 65%. Further, in [3], the outcome was inactive.

With `COc1ccccc1[C@H](c1cccc2ccccc12)[C@@](C)(C#N)C(=O)N1CCCCC1`, the midpoint of inhibition in series [1], the IC50, lay at 125 nM. For the same compound, the Efficacy amounted to 92% in series [2] and 37% in [23]. In addition, the EC50 in [22] was 259 nM.

For the compound `COc1ccccc1[C@H](c1cccc2ccccc12)[C@@](C)(C#N)C(=O)N1CCN(c2cccc(Cl)c2C)CC1`, in series [1], the IC50 was determined as 23 nM. The Activity in [7] came to 41%; in [10], 45%; in [11], 47%; in series [17], 82%. Moreover, the Efficacy was 99% in series [2] and 41% in [23]. In addition, the inhibition in vivo at 5 mg/kg/day turned out to be 24% in [9], 58% in series [12], 35% in series [16] and 20% in series [20]. It took 84 nM to reach a half-maximal effect in series [22] (EC50). In series [14], this compound displayed a Fold change of 1.1.

Consider `CCOC(=O)C(C#N)C(c1ccccc1F)c1cccc2ccccc12` (configuration not stated), for which the Efficacy in series [2] stood at 32%. In [6], the inhibition is 19%.

Consider `CCOC(=O)C(C#N)C(c1ccccc1)c1cccc2ccccc12` (configuration not stated), for which the midpoint of inhibition in series [1], the IC50, lay at 792 nM. In series [2], the Efficacy is 96%. Further, the outcome in series [3] was inactive.

As for `CCOC(=O)C(C#N)C(c1ccc(OC)cc1OC)c1cccc2ccccc12` (configuration not stated), the result in series [21] and in series [3] was inactive.

As to `C#C[C@]1(O)CC[C@H]2[C@@H]3CCc4cc(O)ccc4[C@H]3CC[C@@]21C` [ETHINYL ESTRADIOL], the inhibition in vivo at 5 mg/kg/day in series [9] is 58%; in series [12] it was 60%; in [16], 58%; in series [20] it was 64%. This compound also displayed a Fold change in [14] of 4.

In series [1], `COc1ccccc1C(c1cccc2ccccc12)C(C)(C#N)C(=O)OC(C)(C)C` (configuration not stated) returned an IC50 of 119 nM. The Efficacy in series [2] is 94%; in series [23], 24%. The Stability in [24] is given as 0%; in [25], 32%. This compound also had an EC50 in series [22] of 38 nM.

Turning to `CCOC(=O)C(C#N)C(c1ccccc1C(F)(F)F)c1cccc2ccccc12` (configuration not stated), the midpoint of inhibition in series [1], the IC50, lay at 110 nM. Moreover, the Efficacy in series [2] is 106%; in series [23], 24%. For the same compound, in series [22], it took 240 nM to reach a half-maximal effect (EC50).

As to `CCOC(=O)C(C#N)C(c1ccccc1OC)c1cccc2ccccc12` (configuration not stated), the IC50 in [1] was 139 nM. The Efficacy in series [2] is 90%; in series [23], 32%. Besides, in [22], the EC50 was found to be 233 nM.

Values taken from ChEMBL document CHEMBL1137551, “Estrogen receptor dependent inhibitors of NF-kappaB transcriptional activation-1 synthesis and biological evaluation of substituted 2-cyanopropanoic acid derivatives: pathway selective inhibitors of NF-kappaB, a potential treatment for rheumatoid arthritis” (J Med Chem, 2007).
